# Assay results as given in patent US20260271931A1, “HERBICIDAL MIXTURES” (Bayer Aktiengesellschaft, priority 2023, published 2026).
# Read-outs that look alike come from different tables or passages of the source.
# What was measured:
# Assay type in all cases: in vivo
# Lolium rigidum (LOLRI) = experiment: Post-emergence action against weeds, greenhouse pot test, visual rating: Lolium rigidum; conditions: for pest or weed control at 0.4 g/ha / pest or weed control at […]: Lolium rigidum, 504 h, 21 DAT, read-out: Herbicidal effect [%] on LOLRI 21 DAT
# [1] = tested on: Pharbitis purpurea (PHBPU); experiment: Post-emergence action against weeds, greenhouse pot test, visual rating: Pharbitis purpurea; conditions: 0.4 g a.i./ha
# Kochia scoparia (KCHSC) = experiment: Post-emergence action against weeds, greenhouse pot test, visual rating: Kochia scoparia; conditions: for pest or weed control at 0.4 g/ha / pest or weed control at […]: Bassia scoparia, post-emergence, 504 h, read-out: Herbicidal effect [%] on KCHSC 21 DAT
# Bidens pilosa (BIDPI) = experiment: Post-emergence action against weeds, greenhouse pot test, visual rating: Bidens pilosa
# [2] = tested on: Pharbitis purpurea (PHBPU); experiment: Post-emergence action against weeds, greenhouse pot test, visual rating: Pharbitis purpurea
# Protocol: (§1) When the observed efficacies already exceed the formal sum total of the values of the tests with individual applications, they also exceed the expected value according to Colby, which is calculated using the formula below and is likewise regarded as an indication of synergism (cf. S. R. Colby; in Weeds 15 (1967) pp. 20 to 22):
# (§2) where: • A=efficacy of the active ingredient (A) in % at an application rate of a [g a.i./ha]; • B=efficacy of the active ingredient (B) in % at an application rate of b [g a.i./ha]; • E^C=expected value of the effect of the combination (A)+(B) in % at the combined application rate a+b [g a.i./ha].
# (§3) The observed values (E^A) from the experiments, given suitable low dosages, show an effect of the combinations exceeding the expected values according to Colby (E^C) (Δ).
# (§4) Seeds of mono- and dicotyledonous weeds were placed in sandy loam in pots, covered with soil and grown in a greenhouse under good growth conditions (temperature, air humidity, water supply). Two to three weeks after sowing, the test plants were treated at the two- to four-leaf stage with the compositions of the invention. The compositions of the invention, formulated as spray powders or as emulsion concentrates, were sprayed onto the green parts of the plant in various dosages with an application rate equivalent to […] of water. After the test plants had been kept in the greenhouse under optimum growth conditions for 3 weeks, the activity of the preparations was rated visually in comparison to untreated controls.
# (§5) 100% efficacy means complete control of the particular weed tested.
# (§6) 0% efficacy means zero control of the particular weed tested.
# (§7) Expected values according to Colby are reported under E.
# (§8) The exceedance of the expected value E is given as Δ (=synergistic effect).
# (§9) The rating period is reported in days after application (DAT).
# [3] = tested on: Brachiaria platyfylla (BRAPP); experiment: Post-emergence action against weeds, greenhouse pot test, visual rating: Brachiaria platyfylla; conditions: for pest or weed control at 0.4 g/ha / pest or weed control at […]: post-emergence
# Protocol: as §1, §2, §3, §4, §5, §6, §7, §8, §9
# Eleusine indica (ELEIN) = experiment: Post-emergence action against weeds, greenhouse pot test, visual rating: Eleusine indica; conditions: for pest or weed control at 0.4 g/ha / pest or weed control at […]: Eleusine indica, post-emergence
# Protocol: as §1, §2, §3, §4, §5, §6, §7, §8, §9
# Centaurea cyanus (CENCY) [4] = experiment: Post-emergence action against weeds, greenhouse pot test, visual rating: Centaurea cyanus
# Protocol: as §1, §2, §3, §4, §5, §6, §7, §8, §9
# Centaurea cyanus (CENCY) [5] = experiment: as above; conditions: 240 h, read-out: Herbicidal effect [%] on CENCY 10 DAT
# Avena fatua (AVEFA) = experiment: Post-emergence action against weeds, greenhouse pot test, visual rating: Avena fatua; conditions: for pest or weed control at […]: Avena fatua, 240 h, 10 DAT, read-out: Herbicidal effect [%] on AVEFA 10 DAT
# [6] = tested on: Echinochloa crus-galli (ECHCG); experiment: Post-emergence action against weeds, greenhouse pot test, visual rating: Echinochloa crus-galli
# [7] = tested on: Sorghum halepense (SORHA); experiment: Post-emergence action against weeds, greenhouse pot test, visual rating: Sorghum halepense
# Protocol: as §1, §2, §3, §4, §5, §6, §7, §8, §9
# [8] = 504 h, 0.4 g a.i./ha, read-out: Herbicidal effect [%] on ELEIN 21 DAT
compound,measurement,setting,value
"C#CCN1C(=O)C(F)(F)Oc2cc(F)c(-n3c(=O)n(C)c(=S)n(C)c3=O)cc21 [Trifludimoxazin, trifludimoxazin]",Herbicidal effect [%] on LOLRI 10 DAT,Lolium rigidum (LOLRI); 0.4 g a.i./ha,20%
same,Herbicidal effect [%] on PHBPU 10 DAT,[1],80%
same,Herbicidal effect [%] on KCHSC 10 DAT,Kochia scoparia (KCHSC); 0.4 g a.i./ha,85%
same,Herbicidal effect [%] on KCHSC 21 DAT,Kochia scoparia (KCHSC); 0.4 g a.i./ha,60%
same,Herbicidal effect [%] on BIDPI 10 DAT,Bidens pilosa (BIDPI); 0.4 g a.i./ha,60%
same,Herbicidal effect [%] on BIDPI 21 DAT,Bidens pilosa (BIDPI); 0.4 g a.i./ha,60%
same,Herbicidal effect [%] on PHBPU 21 DAT,[2]; 0.4 g a.i./ha,40%
same,Herbicidal effect [%] on BRAPP 10 DAT,[3]; 0.4 g a.i./ha,40%
same,Herbicidal effect [%] on BRAPP 21 DAT,[3]; 0.4 g a.i./ha,0%
same,Herbicidal effect [%] on ELEIN 10 DAT,Eleusine indica (ELEIN); 0.4 g a.i./ha,70%
same,Herbicidal effect [%] on ELEIN 21 DAT,Eleusine indica (ELEIN); 0.4 g a.i./ha,20%
same,Herbicidal effect [%] on CENCY 10 DAT,Centaurea cyanus (CENCY) [4]; 0.4 g a.i./ha,30%
"C=C[C@]1(C(=O)N[C@H]2CO[C@@H](C(=O)OC)C2)CC(c2cc(F)cc(F)c2)=NO1 (relative stereo) [Icafolin-methyl, methyl rel-(2R,4R)-4-[[(5S)-3-(3,5-difluorophenyl)-5-vinyl-4H-isoxazole-5-carbonyl]amino]tetrahydrofuran-2-carboxylate]",Herbicidal effect [%] on LOLRI 10 DAT,Lolium rigidum (LOLRI); 0.4 g a.i./ha,10%
same,pest or weed control at 0.4 g/ha,Lolium rigidum (LOLRI); 0.4 g a.i./ha,0%
same,Herbicidal effect [%] on PHBPU 10 DAT,[1],0%
same,pest or weed control at 0.4 g/ha,Kochia scoparia (KCHSC); 0.4 g a.i./ha,0%
same,pest or weed control at 0.4 g/ha,Centaurea cyanus (CENCY) [5]; 0.4 g a.i./ha,0%
same,Herbicidal effect [%] on AVEFA 21 DAT,Avena fatua (AVEFA); 0.4 g a.i./ha,10%
same,pest or weed control at 0.4 g/ha,Eleusine indica (ELEIN); [8],0%
"C#CCN1C(=O)COc2cc(F)c(N3C(=O)C4=C(CCCC4)C3=O)cc21 [Flumioxazin, flumioxazin]",pest or weed control at 0.4 g/ha,Lolium rigidum (LOLRI); 0.4 g a.i./ha,0%
same,Herbicidal effect [%] on PHBPU 10 DAT,[1],50%
same,Herbicidal effect [%] on KCHSC 10 DAT,Kochia scoparia (KCHSC); 0.4 g a.i./ha,30%
same,pest or weed control at 0.4 g/ha,Kochia scoparia (KCHSC); 0.4 g a.i./ha,10%
same,Herbicidal effect [%] on PHBPU 21 DAT,[2]; 0.4 g a.i./ha,30%
same,pest or weed control at 0.4 g/ha,"[3]; 240 h, 0.4 g a.i./ha, read-out: Herbicidal effect [%] on BRAPP 10 DAT",30%
same,pest or weed control at 0.4 g/ha,"[3]; 504 h, 0.4 g a.i./ha, read-out: Herbicidal effect [%] on BRAPP 21 DAT",10%
same,pest or weed control at 0.4 g/ha,"Eleusine indica (ELEIN); 240 h, 0.4 g a.i./ha, read-out: Herbicidal effect [%] on ELEIN 10 DAT",30%
same,pest or weed control at 0.4 g/ha,Eleusine indica (ELEIN); [8],0%
"CCOC(=O)COc1ncccc1Oc1cc(-n2c(=O)cc(C(C)(F)F)n(C)c2=O)c(F)cc1Cl [Compound A1, ethyl [(3-{2-chloro-5-[4-(1,1-difluoroethyl)-3-methyl-2,6-dioxo-3,6-dihydropyrimidin-1(2H)-yl]-4-fluorophenoxy}pyridin-2-yl)oxy]acetate]",Herbicidal effect [%] on LOLRI 10 DAT,Lolium rigidum (LOLRI); 0.15 g a.i./ha,10%
same,Herbicidal effect [%] on LOLRI 10 DAT,Lolium rigidum (LOLRI); 0.45 g a.i./ha,15%
same,pest or weed control at […],Lolium rigidum (LOLRI); 0.15 g a.i./ha,5%
same,pest or weed control at […],Lolium rigidum (LOLRI); 0.45 g a.i./ha,5%
same,Herbicidal effect [%] on ECHCG 10 DAT,[6]; 0.15 g a.i./ha,10%
same,Herbicidal effect [%] on ECHCG 21 DAT,[6]; 0.15 g a.i./ha,10%
same,Herbicidal effect [%] on ECHCG 10 DAT,[6]; 0.45 g a.i./ha,25%
same,Herbicidal effect [%] on ECHCG 21 DAT,[6]; 0.45 g a.i./ha,20%
same,Herbicidal effect [%] on KCHSC 10 DAT,Kochia scoparia (KCHSC); 0.15 g a.i./ha,5%
same,Herbicidal effect [%] on KCHSC 10 DAT,Kochia scoparia (KCHSC); 0.45 g a.i./ha,25%
same,pest or weed control at […],Kochia scoparia (KCHSC); 0.15 g a.i./ha,0%
same,pest or weed control at […],Kochia scoparia (KCHSC); 0.45 g a.i./ha,5%
same,pest or weed control at […],Centaurea cyanus (CENCY) [5]; 0.15 g a.i./ha,15%
same,pest or weed control at […],Centaurea cyanus (CENCY) [5]; 0.45 g a.i./ha,40%
same,Herbicidal effect [%] on AVEFA 21 DAT,Avena fatua (AVEFA); 0.15 g a.i./ha,10%
same,Herbicidal effect [%] on AVEFA 21 DAT,Avena fatua (AVEFA); 0.45 g a.i./ha,20%
same,pest or weed control at […],Avena fatua (AVEFA); 0.15 g a.i./ha,5%
same,pest or weed control at […],Avena fatua (AVEFA); 0.45 g a.i./ha,20%
same,Herbicidal effect [%] on BIDPI 10 DAT,Bidens pilosa (BIDPI); 0.15 g a.i./ha,20%
same,Herbicidal effect [%] on BIDPI 21 DAT,Bidens pilosa (BIDPI); 0.15 g a.i./ha,10%
same,Herbicidal effect [%] on BIDPI 10 DAT,Bidens pilosa (BIDPI); 0.45 g a.i./ha,57.5%
same,Herbicidal effect [%] on BIDPI 21 DAT,Bidens pilosa (BIDPI); 0.45 g a.i./ha,30%
same,Herbicidal effect [%] on SORHA 10 DAT,[7]; 0.15 g a.i./ha,47.5%
same,Herbicidal effect [%] on SORHA 21 DAT,[7]; 0.15 g a.i./ha,49%
same,Herbicidal effect [%] on SORHA 10 DAT,[7]; 0.45 g a.i./ha,45%
same,Herbicidal effect [%] on SORHA 21 DAT,[7]; 0.45 g a.i./ha,40%
same,Herbicidal effect [%] on PHBPU 10 DAT,[2]; 0.15 g a.i./ha,20%
same,Herbicidal effect [%] on PHBPU 21 DAT,[2]; 0.15 g a.i./ha,20%
same,Herbicidal effect [%] on PHBPU 10 DAT,[2]; 0.45 g a.i./ha,77.5%
same,Herbicidal effect [%] on PHBPU 21 DAT,[2]; 0.45 g a.i./ha,50%
same,pest or weed control at […],"[3]; 240 h, 0.15 g a.i./ha, read-out: Herbicidal effect [%] on BRAPP 10 DAT",30%
same,pest or weed control at […],"[3]; 240 h, 0.45 g a.i./ha, read-out: Herbicidal effect [%] on BRAPP 10 DAT",45%
same,pest or weed control at […],"[3]; 504 h, 0.15 g a.i./ha, read-out: Herbicidal effect [%] on BRAPP 21 DAT",0%
same,pest or weed control at […],"[3]; 504 h, 0.45 g a.i./ha, read-out: Herbicidal effect [%] on BRAPP 21 DAT",0%
same,pest or weed control at […],"Eleusine indica (ELEIN); 240 h, 0.15 g a.i./ha, read-out: Herbicidal effect [%] on ELEIN 10 DAT",10%
same,pest or weed control at […],"Eleusine indica (ELEIN); 240 h, 0.45 g a.i./ha, read-out: Herbicidal effect [%] on ELEIN 10 DAT",35%
same,pest or weed control at […],"Eleusine indica (ELEIN); 504 h, 0.15 g a.i./ha, read-out: Herbicidal effect [%] on ELEIN 21 DAT",5%
same,pest or weed control at […],"Eleusine indica (ELEIN); 504 h, 0.45 g a.i./ha, read-out: Herbicidal effect [%] on ELEIN 21 DAT",5%
same,Herbicidal effect [%] on CENCY 21 DAT,Centaurea cyanus (CENCY) [4]; 0.15 g a.i./ha,15%
same,Herbicidal effect [%] on CENCY 21 DAT,Centaurea cyanus (CENCY) [4]; 0.45 g a.i./ha,20%
